Earlier results in US6197535A, “Methods for purifying and assaying a conus γ-carboxylase” (University of Utah Research Foundation, priority 1999, dated 2001).

System: N-methyl-D-aspartate receptor
Settings: cited from earlier work

Conantokin-G
inhibition of the N-methyl-D-aspartate receptor: inhibits
